According to patent US11008313B2, “Substituted 1-methyl-1,2,3,4-tetrahydroisoquinoline molecules as PCSK9 allosteric binders” (Merck Sharp & Dohme Corp., priority 2016, dated 2021):

Assays:
[1] = biological target: T1, PCSK9 (Homo sapiens, UniProt Q8NBP7); assay: Fluorescence polarization competition binding assay (probe: compound of Example 57); settings: 2 μM PCSK9, 50 nM compound of Example 57 as probe, overnight incubation; read-out: FP IC
Protocol: Relative compound affinities were determined using a competition binding assay with a fluorescence polarization format. Solution (49 μL) containing 2 μM PCSK9 and 50 nM compound of Example 57 in 20 mM HEPES (pH 7.5)/150 mM NaCl/1 mM CaCl2/0.005% P-20 was dispensed to wells of a 384-well black non-binding microplate before the addition of 1 μL of test compound or DMSO. After mixing, the plate was centrifuged and sealed for overnight incubation in the dark. The anisotropy signal was read using a fluorescence polarization protocol on a Perkin-Elmer Envision plate reader. The % inhibition was determined relative to the window defined by the DMSO control wells and wells containing 50 nM probe in the absence of PCSK9.

[2] = biological target: T1, PCSK9; assay: Differential scanning calorimetry (DSC) assay, direct binding / thermal stabilization of PCSK9; settings: Tm(with compound)−Tm(no compound); 2 μM PCSK9, 300 μM test compound
Protocol: Differential scanning calorimetry (DSC) was used as a biophysical method to confirm direct binding to PCSK9. A solution containing 2 μM PCSK9 with or without 300 μM test compound in 25 mM HEPES (pH 7.5)/150 mM NaCl/1 mM CaCl2/3.75% DMSO was transferred to the sample cell of the DSC instrument, while buffer alone was placed in the reference cell. Both cells were heated at a constant rate (200° C./hr) from 20-80° C. while recording the excess heat capacity of the sample cell relative to the reference cell. Each thermogram was analyzed to provide the melting temperature (Tm) of the protein.
The higher the temperature shift generally, the higher the affinity.

T1 sequence (Q8NBP7 153-692): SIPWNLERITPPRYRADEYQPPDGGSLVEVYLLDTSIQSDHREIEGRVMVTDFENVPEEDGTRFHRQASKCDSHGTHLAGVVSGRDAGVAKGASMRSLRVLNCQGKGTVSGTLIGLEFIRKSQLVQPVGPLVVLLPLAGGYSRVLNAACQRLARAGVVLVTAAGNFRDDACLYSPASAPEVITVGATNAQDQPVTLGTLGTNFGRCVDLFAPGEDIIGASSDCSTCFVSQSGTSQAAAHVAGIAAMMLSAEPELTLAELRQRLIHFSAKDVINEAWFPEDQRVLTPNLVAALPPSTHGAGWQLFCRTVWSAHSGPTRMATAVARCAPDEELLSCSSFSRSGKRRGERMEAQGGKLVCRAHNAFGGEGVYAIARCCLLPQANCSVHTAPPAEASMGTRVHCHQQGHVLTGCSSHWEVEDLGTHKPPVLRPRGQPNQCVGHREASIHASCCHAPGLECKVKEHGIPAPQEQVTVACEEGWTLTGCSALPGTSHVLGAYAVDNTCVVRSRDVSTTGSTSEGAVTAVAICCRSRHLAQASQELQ

Work on `C[C@]1(CC(=O)Nc2nccs2)NCCc2cc(OCC3CCCCO3)c(Oc3ccc(C(=O)O)c(F)c3)cc21` (single isomer, unassigned) [Example 70, 2-fluoro-4-(((1R)-1-methyl-1-(2-oxo-2-(thiazol-2-ylamino)ethyl)-6-(((R or S)-tetrahydro-2H-pyran-2-yl)methoxy)-1,2,3,4-tetrahydroisoquinolin-7-yl)oxy)benzoic acid] yielded an IC50 [1] of 551 nM and a ΔTm at 300 µM [2] of 7.98 °C.

Molecule `C[C@]1(CC(=O)Nc2nccs2)NCCc2cc(OCC3CCCCO3)c(Oc3ccc(C(=O)Nc4n[nH]c5ncccc45)c(F)c3)cc21` (single isomer, unassigned) [Example 75, 2-fluoro-4-(((R)-1-methyl-1-(2-oxo-2-(thiazol-2-ylamino)ethyl)-6-(((R or S)-tetrahydro-2H-pyran-2-yl)methoxy)-1,2,3,4-tetrahydroisoquinolin-7-yl)oxy)-N-(1H-pyrazolo[3,4-b]pyridin-3-yl)benzamide] has an IC50 [1] of 410 nM and a ΔTm at 300 µM [2] of 6.18 °C.

For `Cn1nccc1NC(=O)c1ccc(Oc2cc3c(cc2OCC2CCCCO2)CCN[C@]3(C)CC(=O)Nc2nccs2)cc1F` (single isomer, unassigned) [Example 77, 2-fluoro-4-(((R)-1-methyl-1-(2-oxo-2-(thiazol-2-ylamino)ethyl)-6-(((R or S)-tetrahydro-2H-pyran-2-yl)methoxy)-1,2,3,4-tetrahydroisoquinolin-7-yl)oxy)-N-(1-methyl-1H-pyrazol-5-yl)benzamide], the IC50 [1] was 591 nM and the ΔTm at 300 µM [2] was 6.67 °C.

For `C[C@]1(CC(=O)Nc2nccs2)NCCc2cc(OCC3CCCCO3)c(Oc3cccc(F)c3)cc21` (single isomer, unassigned) [Example 80, 2-((1R)-7-(3-fluorophenoxy)-1-methyl-6-(((R or S)-tetrahydro-2H-pyran-2-yl)methoxy)-1,2,3,4-tetrahydroisoquinolin-1-yl)-N-(thiazol-2-yl)acetamide], the IC50 [1] was 550 nM and the ΔTm at 300 µM [2] was 6.09 °C.

In the case of `C[C@]1(CC(=O)Nc2nccs2)NCCc2cc(OCC3CCCCO3)c(Oc3cccc(F)c3)cc21` (single isomer, unassigned) [Example 81, 2-((1R)-7-(3-fluorophenoxy)-1-methyl-6-(((S or R)-tetrahydro-2H-pyran-2-yl)methoxy)-1,2,3,4-tetrahydroisoquinolin-1-yl)-N-(thiazol-2-yl)acetamide], the IC50 [1] is reported as 550 nM and the “DSC ΔTm” value [2] is reported as 6.585 °C.

For `COc1cc2c3cc1Oc1ccc(C(=O)O)c(c1)OCCCCCCc1csc(n1)NC(=O)C[C@@]3(C)NCC2` [Example 1, (Z)-36-methoxy-31-methyl-5-oxo-31,32,33,34-tetrahydro-2,14-dioxa-6-aza-7(2,4)-thiazola-3(7,1)-isoquinolina-1(1,3)-benzenacyclotetradecaphane-14-carboxylic acid], the IC50 [1] was 3670 nM and the ΔTm at 300 µM [2] was 4.29 °C.

With `COc1cc2c3cc1Oc1ccc(C(=O)O)c(c1)OC/C=C\CCc1csc(n1)NC(=O)C[C@@]3(C)NCC2` [Example 2, (R,72Z)-36-methoxy-31-methyl-5-oxo-31,32,33,34-tetrahydro-2,13-dioxa-6-aza-7(2,4)-thiazola-3(7,1)-isoquinolina-1(1,3)-benzenacyclotridecaphan-10-ene-14-carboxylic acid] the IC50 [1] was 1240 nM and the ΔTm at 300 µM [2] was 6.21 °C.

For `COC(=O)c1ccc2cc1OCCCCCc1csc(n1)NC(=O)C[C@@]1(C)NCCc3cc(OC)c(cc31)O2` [Example 3, methyl (R,Z)-36-methoxy-31-methyl-5-oxo-31,32,33,34-tetrahydro-2,13-dioxa-6-aza-7(2,4)-thiazola-3(7,1)-isoquinolina-1(1,3)-benzenacyclotridecaphane-14-carboxylate], the IC50 [1] was 1250 nM and the ΔTm at 300 µM [2] was 4.92 °C.

`COc1cc2c(cc1Oc1ccc(C(=O)O)c(F)c1)[C@@](C)(CC(=O)Nc1nccs1)NCC2` [Example 4, (R)-2-fluoro-4-((6-methoxy-1-methyl-1-(2-oxo-2-(thiazol-2-ylamino)ethyl)-1,2,3,4-tetrahydroisoquinolin-7-yl)oxy)benzoic acid] gave an IC50 [1] of 487 nM and a ΔTm at 300 µM [2] of 7.06 °C.

In the case of `COc1cc2c(cc1Oc1cc(F)c(C(=O)O)c(F)c1)[C@@](C)(CC(=O)Nc1nccs1)NCC2` [Example 5, (R)-2,6-difluoro-4-((6-methoxy-1-methyl-1-(2-oxo-2-(thiazol-2-ylamino)ethyl)-1,2,3,4-tetrahydroisoquinolin-7-yl)oxy)benzoic acid], the IC50 [1] is reported as 561 nM and the ΔTm at 300 µM [2] is reported as 6.99 °C.

`COc1cc2c(cc1Oc1ccc3cnccc3c1)[C@@](C)(CC(=O)Nc1nccs1)NCC2` [Example 6, (R)-2-(7-(isoquinolin-6-yloxy)-6-methoxy-1-methyl-1,2,3,4-tetrahydroisoquinolin-1-yl)-N-(thiazol-2-yl)acetamide] showed an IC50 [1] of 648 nM and a ΔTm at 300 µM [2] of 5.78 °C.

For `COc1cc2c(cc1Oc1ccnc(F)c1)[C@@](C)(CC(=O)Nc1nccs1)NCC2` [Example 7, (R)-2-(7-((2-fluoropyridin-4-yl)oxy)-6-methoxy-1-methyl-1,2,3,4-tetrahydroisoquinolin-1-yl)-N-(thiazol-2-yl)acetamide], the IC50 [1] was 652 nM and the ΔTm at 300 µM [2] was 5.59 °C.

`COc1cc2c(cc1Oc1cncc(F)c1)[C@@](C)(CC(=O)Nc1nccs1)NCC2` [Example 8, (R)-2-(7-((5-fluoropyridin-3-yl)oxy)-6-methoxy-1-methyl-1,2,3,4-tetrahydroisoquinolin-1-yl)-N-(thiazol-2-yl)acetamide] showed an IC50 [1] of 753 nM and a ΔTm at 300 µM [2] of 5.44 °C.

In the case of `COc1cc2c(cc1Oc1cccc(F)c1)[C@@](C)(CC(=O)Nc1nccs1)NCC2` [Example 9, (R)-2-(7-(3-fluorophenoxy)-6-methoxy-1-methyl-1,2,3,4-tetrahydroisoquinolin-1-yl)-N-(thiazol-2-yl)acetamide], the IC50 [1] is reported as 847 nM and the ΔTm at 300 µM [2] is reported as 5.92 °C.

In the case of `CC1=CC(C)=[N+]2C1=Cc1ccc(CCC(=O)NCCOCCOc3cc4c(cc3Oc3ccc(C(=O)O)c(F)c3)[C@@](C)(CC(=O)Nc3nccs3)NCC4)n1[B-]2(F)F` [Example 57], the “DSC ΔTm” value [2] is reported as 6.15 °C.

For `C[C@]1(CC(=O)Nc2nccs2)NCCc2cc(OCCOCCOCCNC(=O)CCCC[C@@H]3SC[C@@H]4NC(=O)N[C@@H]43)c(Oc3ccc(C(=O)O)cc3)cc21` [Example 58, 4-(((R)-1-methyl-1-(2-oxo-2-(thiazol-2-ylamino)ethyl)-6-(2-(2-(2-(5-((3aS,4S,6aR)-2-oxohexahydro-1H-thieno[3,4-d]imidazol-4-yl)pentanamido)ethoxy)ethoxy)ethoxy)-1,2,3,4-tetrahydroisoquinolin-7-yl)oxy)benzoic acid], the ΔTm at 300 µM [2] was 5.88 °C.

With `Cc1cc(C)n2c1C=C1C=CC(CCC(=O)NCCOCCOc3cc4c(cc3Oc3ccc(C(=O)O)cc3)[C@@](C)(CC(=O)Nc3nccs3)NCC4)=[N+]1[B-]2(F)F` [Example 59, (R)-4-((6-(2-(2-(3-(5,5-difluoro-7,9-dimethyl-5H-4l4,5l4-dipyrrolo[1,2-c:2′,1′-f][1,3,2]diazaborinin-3-yl)propanamido)ethoxy)ethoxy)-1-methyl-1-(2-oxo-2-(thiazol-2-ylamino)ethyl)-1,2,3,4-tetrahydroisoquinolin-7-yl)oxy)benzoic acid] the ΔTm at 300 µM [2] was 5.15 °C.

With `C[C@]1(CC(=O)Nc2nccs2)NCCc2cc(OCCOCCNC(=O)CCCC[C@@H]3SC[C@@H]4NC(=O)N[C@@H]43)c(Oc3ccc(C(=O)O)cc3)cc21` [Example 60, 4-(((R)-1-methyl-1-(2-oxo-2-(thiazol-2-ylamino)ethyl)-6-(2-(2-(5-((3aS,4S,6aR)-2-oxohexahydro-1H-thieno[3,4-d]imidazol-4-yl)pentanamido)ethoxy)ethoxy)-1,2,3,4-tetrahydroisoquinolin-7-yl)oxy)benzoic acid] the ΔTm at 300 µM [2] was 6.42 °C.

`COC(=O)c1ccc(Oc2cc3c(cc2OCCOCCNC(=O)CCC2=[N+]4C(=Cc5c(C)cc(C)n5[B-]4(F)F)C=C2)CCN[C@]3(C)CC(=O)Nc2nccs2)cc1F` [Example 61, methyl (R)-4-((6-(2-(2-(3-(5,5-difluoro-7,9-dimethyl-5H-4l4,5l4-dipyrrolo[1,2-c:2′,1′-f][1,3,2]diazaborinin-3-yl)propanamido)ethoxy)ethoxy)-1-methyl-1-(2-oxo-2-(thiazol-2-ylamino)ethyl)-1,2,3,4-tetrahydroisoquinolin-7-yl)oxy)-2-fluorobenzoate] was tested, and the ΔTm at 300 µM [2] was 2.87 °C.

`Cc1ncsc1-c1ccc(CNC(=O)[C@@H]2C[C@@H](O)CN2C(=O)[C@@H](NC(=O)COCC(=O)NCCOCCOc2cc3c(cc2Oc2ccc(-c4ccc(C(=O)O)cc4)c(F)c2)[C@@](C)(CC(=O)Nc2nccs2)NCC3)C(C)(C)C)cc1` [Example 105, 2′-fluoro-4′-(((R)-6-(((S)-13-((2S,4R)-4-hydroxy-2-((4-(4-methylthiazol-5-yl)benzyl)carbamoyl)pyrrolidine-1-carbonyl)-14,14-dimethyl-7,11-dioxo-3,9-dioxa-6,12-diazapentadecyl)oxy)-1-methyl-1-(2-oxo-2-(thiazol-2-ylamino)ethyl)-1,2,3,4-tetrahydroisoquinolin-7-yl)oxy)-[1,1′-biphenyl]-4-carboxylic acid] gave an IC50 [1] of 225 nM.

`COc1cc2c(cc1-c1ccc(F)c(C(=O)O)c1)[C@@](C)(CC(=O)Nc1nccs1)NCC2` [Example 112, (R)-2-fluoro-5-(6-methoxy-1-methyl-1-(2-oxo-2-(thiazol-2-ylamino)ethyl)-1,2,3,4-tetrahydroisoquinolin-7-yl)benzoic acid] showed a ΔTm at 300 µM [2] of 6.8 °C.
